US10405547B2, “Substituted cyclic amides as herbicides” (FMC Corporation, priority 2015, dated 2019)

Tests used:
Format in all cases: in vivo
[1] = test system: sedge, umbrella (small-flower umbrella sedge, Cyperus difformis); experiment: Test B flooded paddy test, umbrella sedge; conditions: 250 g ai/ha, applied to paddy water, visual rating after 13 to 15 days, scale 0 (no effect) to 100 (complete control)
Procedure, shortened: (§1)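 In-water treatment: compound dosed into 3 cm flood over soil, water level unchanged throughout. Controls run alongside; visual assessment at day 13–15.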

[2] = test system: ducksalad (Heteranthera limosa); experiment: Test B flooded paddy test, ducksalad; conditions: 250 g ai/ha, applied to paddy water, visual rating after 13 to 15 days, scale 0 (no effect) to 100 (complete control)
Procedure, shortened: as §1

[3] = test system: blackgrass (Alopecurus myosuroides); experiment: Test A postemergence, blackgrass; conditions: 0 to 100 scale (0 no effect, 100 complete control)
Procedure, shortened: (§2)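 Injury scores (0 no effect, 100 complete control) were assigned by visually comparing treated with untreated plants after about 10 days of greenhouse growth. Seeds for soil treatment were sown into a loam and sand blend, while plants for foliar treatment grew in pots of that same blend.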

[4] = test system: ragweed (common ragweed, Ambrosia elatior); experiment: Test A preemergence, ragweed; conditions: 0 to 100 scale (0 no effect, 100 complete control)
Procedure, shortened: as §2

[5] = test system: barnyardgrass (Echinochloa crus-galli); experiment: Test B flooded paddy test, barnyardgrass; conditions: 250 g ai/ha, applied to paddy water, visual rating after 13 to 15 days, scale 0 (no effect) to 100 (complete control)
Procedure, shortened: as §1

[6] = test system: ryegrass, Italian (Lolium multiflorum); experiment: Test A preemergence, Italian ryegrass; conditions: 0 to 100 scale (0 no effect, 100 complete control)
Procedure, shortened: as §2

[7] = test system: ryegrass, Italian (Lolium multiflorum); experiment: Test A postemergence, Italian ryegrass; conditions: 0 to 100 scale (0 no effect, 100 complete control)
Procedure, shortened: as §2

rice (Oryza sativa) = experiment: Test B flooded paddy test, rice; conditions: 250 g ai/ha, applied to paddy water, visual rating after 13 to 15 days, scale 0 (no effect) to 100 (complete control)
Procedure, shortened: as §1

[8] = test system: galium (catchweed bedstraw, Galium aparine); experiment: Test A postemergence, galium; conditions: 0 to 100 scale (0 no effect, 100 complete control)
Procedure, shortened: as §2

[9] = test system: foxtail, giant (Setaria faberii); experiment: Test A postemergence, giant foxtail; conditions: 0 to 100 scale (0 no effect, 100 complete control)
Procedure, shortened: as §2

corn (Zea mays) = experiment: Test A postemergence, corn; conditions: 0 to 100 scale (0 no effect, 100 complete control)
Procedure, shortened: as §2

[10] = test system: foxtail, giant (Setaria faberii); experiment: Test A preemergence, giant foxtail; conditions: 0 to 100 scale (0 no effect, 100 complete control)
Procedure, shortened: as §2

[11] = test system: ragweed (common ragweed, Ambrosia elatior); experiment: Test A postemergence, ragweed; conditions: 0 to 100 scale (0 no effect, 100 complete control)
Procedure, shortened: as §2

[12] = test system: barnyardgrass (Echinochloa crus-galli); experiment: Test A postemergence, barnyardgrass; conditions: 0 to 100 scale (0 no effect, 100 complete control)
Procedure, shortened: as §2

kochia (Kochia scoparia) [13] = experiment: Test A postemergence, kochia; conditions: 0 to 100 scale (0 no effect, 100 complete control)
Procedure, shortened: as §2

[14] = test system: barnyardgrass (Echinochloa crus-galli); experiment: Test A preemergence, barnyardgrass; conditions: 0 to 100 scale (0 no effect, 100 complete control)
Procedure, shortened: as §2

[15] = test system: pigweed (Amaranthus retroflexus); experiment: Test A postemergence, pigweed; conditions: 0 to 100 scale (0 no effect, 100 complete control)
Procedure, shortened: as §2

[16] = test system: wheat (Triticum aestivum); experiment: Test A postemergence, wheat; conditions: 0 to 100 scale (0 no effect, 100 complete control)
Procedure, shortened: as §2

[17] = test system: pigweed (Amaranthus retroflexus); experiment: Test A preemergence, pigweed; conditions: 0 to 100 scale (0 no effect, 100 complete control)
Procedure, shortened: as §2

kochia (Kochia scoparia) [18] = experiment: Test A preemergence, kochia; conditions: 0 to 100 scale (0 no effect, 100 complete control)
Procedure, shortened: as §2

[19] = 125 g ai/ha, visual injury, approximately 10 days
[20] = 500 g ai/ha, visual injury, approximately 10 days

Compound | Plant response rating, Sedge, Umbrella (Flood) [1] | Plant response rating, Ducksalad (Flood) [2] | Plant response rating, Blackgrass [3, 19] | Plant response rating, Ragweed ([4]; 125 g ai/ha) | Plant response rating, Barnyardgrass (Flood) [5] | Plant response rating, Ryegrass, Italian ([6]; 125 g ai/ha) | Plant response rating, Ryegrass, Italian [7, 19] | Plant response rating, Rice (Flood) (rice (Oryza sativa)) | Plant response rating, Galium [8, 19] | Plant response rating, Foxtail, Giant [9, 19] | Plant response rating, Corn (corn (Zea mays); [19]) | Plant response rating, Foxtail, Giant ([10]; 125 g ai/ha) | Plant response rating, Ragweed [11, 19] | Plant response rating, Barnyardgrass [12, 19] | Plant response rating, Kochia (kochia (Kochia scoparia) [13]; [19]) | Plant response rating, Barnyardgrass ([14]; 125 g ai/ha) | Plant response rating, Pigweed [15, 19] | Plant response rating, Wheat [16, 19] | Plant response rating, Pigweed ([17]; 125 g ai/ha) | Plant response rating, Kochia (kochia (Kochia scoparia) [18]; 125 g ai/ha) | other results
CN1CC(c2cccc(Oc3ccc(C(F)(F)F)cn3)c2)C(C(=O)Nc2ccccc2F)C1=O (single isomer, unassigned) [Compound 43] | 0 | 98 | 30 | 0 | 50 | 30 | 0 | 15 | 70 | 80 | 40 | 90 | 0 | 90 | 40 | 80 | 30 | 30 | 40 | 30 | Plant response rating, Blackgrass [3, 20]: 50; Plant response rating, Ragweed ([4]; 500 g ai/ha): 80; Plant response rating, Ryegrass, Italian ([6]; 500 g ai/ha): 80; Plant response rating, Ryegrass, Italian [7, 20]: 30; Plant response rating, Galium [8, 20]: 80; Plant response rating, Foxtail, Giant [9, 20]: 80; Plant response rating, Corn (corn (Zea mays); [20]): 80; Plant response rating, Foxtail, Giant ([10]; 500 g ai/ha): 90; Plant response rating, Ragweed [11, 20]: 0; Plant response rating, Barnyardgrass [12, 20]: 90; Plant response rating, Kochia (kochia (Kochia scoparia) [13]; [20]): 60; Plant response rating, Barnyardgrass ([14]; 500 g ai/ha): 80; Plant response rating, Pigweed [15, 20]: 50; Plant response rating, Wheat [16, 20]: 50; Plant response rating, Pigweed ([17]; 500 g ai/ha): 80; Plant response rating, Kochia (kochia (Kochia scoparia) [18]; 500 g ai/ha): 30
CN1CC(c2cccc(Oc3ccc(F)cn3)c2)C(C(=O)Nc2cccc(C#N)c2F)C1=O (single isomer, unassigned) [Compound 88] | 0 | 50 | 0 | 0 | 0 | 20 | 0 | 0 | 40 | 70 | 20 | 90 | 0 | 80 | 30 | 30 | 20 | 60 | 20 | 30 | Plant response rating, Blackgrass ([3]; 31 g ai/ha): 0; Plant response rating, Ragweed ([4]; 31 g ai/ha): 0; Plant response rating, Ryegrass, Italian ([6]; 31 g ai/ha): 0; Plant response rating, Ryegrass, Italian ([7]; 31 g ai/ha): 0; Plant response rating, Galium ([8]; 31 g ai/ha): 30; Plant response rating, Foxtail, Giant ([9]; 31 g ai/ha): 30; Plant response rating, Corn (corn (Zea mays); 31 g ai/ha): 0; Plant response rating, Foxtail, Giant ([10]; 31 g ai/ha): 30; Plant response rating, Ragweed ([11]; 31 g ai/ha): 0; Plant response rating, Barnyardgrass ([12]; 31 g ai/ha): 30; Plant response rating, Kochia (kochia (Kochia scoparia) [13]; 31 g ai/ha): 0; Plant response rating, Barnyardgrass ([14]; 31 g ai/ha): 0; Plant response rating, Pigweed ([15]; 31 g ai/ha): 0; Plant response rating, Wheat ([16]; 31 g ai/ha): 0; Plant response rating, Pigweed ([17]; 31 g ai/ha): 0; Plant response rating, Kochia (kochia (Kochia scoparia) [18]; 31 g ai/ha): 0
CN1CC(c2cccc(Sc3ccccc3)c2)C(C(=O)Nc2cccc(F)c2F)C1=O (single isomer, unassigned) [Compound 51] | 0 | 40 | 0 | 0 | 0 | 0 | 20 | 0 | 40 | 10 | 0 | 90 | 0 | 0 | 0 | 20 | 0 | 0 | 0 | 20 | Plant response rating, Blackgrass [3, 20]: 0; Plant response rating, Ragweed ([4]; 500 g ai/ha): 0; Plant response rating, Ryegrass, Italian ([6]; 500 g ai/ha): 20; Plant response rating, Ryegrass, Italian [7, 20]: 30; Plant response rating, Galium [8, 20]: 50; Plant response rating, Foxtail, Giant [9, 20]: 40; Plant response rating, Corn (corn (Zea mays); [20]): 30; Plant response rating, Foxtail, Giant ([10]; 500 g ai/ha): 90; Plant response rating, Ragweed [11, 20]: 20; Plant response rating, Barnyardgrass [12, 20]: 30; Plant response rating, Kochia (kochia (Kochia scoparia) [13]; [20]): 30; Plant response rating, Pigweed [15, 20]: 0; Plant response rating, Wheat [16, 20]: 20; Plant response rating, Pigweed ([17]; 500 g ai/ha): 0; Plant response rating, Kochia (kochia (Kochia scoparia) [18]; 500 g ai/ha): 50
O=C1NCC(c2cccc(OCC3OCCO3)c2)C1C(=O)Nc1ccccc1Cl (centres unmarked) [Compound 6] | 0 | 0 | 0 | 0 | 0 | 0 | 0 | 0 | 0 | 0 | 0 | 70 | 0 | 0 | 0 | 20 | 0 | 0 | 60 | 0 | Plant response rating, Blackgrass [3, 20]: 20; Plant response rating, Ragweed ([4]; 500 g ai/ha): 20; Plant response rating, Ryegrass, Italian ([6]; 500 g ai/ha): 0; Plant response rating, Ryegrass, Italian [7, 20]: 0; Plant response rating, Galium [8, 20]: 0; Plant response rating, Foxtail, Giant [9, 20]: 70; Plant response rating, Corn (corn (Zea mays); [20]): 20; Plant response rating, Foxtail, Giant ([10]; 500 g ai/ha): 90; Plant response rating, Ragweed [11, 20]: 0; Plant response rating, Barnyardgrass [12, 20]: 70; Plant response rating, Kochia (kochia (Kochia scoparia) [13]; [20]): 0; Plant response rating, Barnyardgrass ([14]; 500 g ai/ha): 80; Plant response rating, Pigweed [15, 20]: 0; Plant response rating, Wheat [16, 20]: 20; Plant response rating, Pigweed ([17]; 500 g ai/ha): 50; Plant response rating, Kochia (kochia (Kochia scoparia) [18]; 500 g ai/ha): 0
